Laboratory results from ChEMBL document CHEMBL5303766, “Data for DCP probe FHT-2344” (2022).
The source made the active and inactive calls. The calls are words filed in the database; no cut-off is given here.

Legend:
[1] = molecular target: T1, Phosphorylase b kinase gamma catalytic chain, liver/testis isoform (Homo sapiens) (UniProt P15735); test: PHKG2 SGC Tm panel (DSF); settings: for ΔTm: Compound concentration 10.0 uM
T1 sequence (whole entry): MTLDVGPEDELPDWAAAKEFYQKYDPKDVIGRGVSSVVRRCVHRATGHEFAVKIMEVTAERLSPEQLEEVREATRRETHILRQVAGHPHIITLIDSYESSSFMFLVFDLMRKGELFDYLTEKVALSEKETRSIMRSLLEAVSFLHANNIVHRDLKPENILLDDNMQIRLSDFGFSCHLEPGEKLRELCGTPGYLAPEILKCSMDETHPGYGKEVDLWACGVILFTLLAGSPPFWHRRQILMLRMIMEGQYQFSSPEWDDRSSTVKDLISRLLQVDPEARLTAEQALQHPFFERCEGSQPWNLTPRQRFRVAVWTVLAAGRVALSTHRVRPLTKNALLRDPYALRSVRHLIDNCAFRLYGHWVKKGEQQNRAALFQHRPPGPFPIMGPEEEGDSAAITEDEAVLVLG

[2] = molecular target: SWI/SNF-related matrix-associated actin-dependent regulator of chromatin subfamily A member 2 (Homo sapiens, UniProt P51531); test: Luciferase reporter assay: SMARCA2 transcriptional activity in a SMARCA4-mutant cell line; type: functional
SWI/SNF-related matrix-associated actin-dependent regulator of chromatin subfamily A member 2, sequence (P51531 whole entry, looked up, change not shown): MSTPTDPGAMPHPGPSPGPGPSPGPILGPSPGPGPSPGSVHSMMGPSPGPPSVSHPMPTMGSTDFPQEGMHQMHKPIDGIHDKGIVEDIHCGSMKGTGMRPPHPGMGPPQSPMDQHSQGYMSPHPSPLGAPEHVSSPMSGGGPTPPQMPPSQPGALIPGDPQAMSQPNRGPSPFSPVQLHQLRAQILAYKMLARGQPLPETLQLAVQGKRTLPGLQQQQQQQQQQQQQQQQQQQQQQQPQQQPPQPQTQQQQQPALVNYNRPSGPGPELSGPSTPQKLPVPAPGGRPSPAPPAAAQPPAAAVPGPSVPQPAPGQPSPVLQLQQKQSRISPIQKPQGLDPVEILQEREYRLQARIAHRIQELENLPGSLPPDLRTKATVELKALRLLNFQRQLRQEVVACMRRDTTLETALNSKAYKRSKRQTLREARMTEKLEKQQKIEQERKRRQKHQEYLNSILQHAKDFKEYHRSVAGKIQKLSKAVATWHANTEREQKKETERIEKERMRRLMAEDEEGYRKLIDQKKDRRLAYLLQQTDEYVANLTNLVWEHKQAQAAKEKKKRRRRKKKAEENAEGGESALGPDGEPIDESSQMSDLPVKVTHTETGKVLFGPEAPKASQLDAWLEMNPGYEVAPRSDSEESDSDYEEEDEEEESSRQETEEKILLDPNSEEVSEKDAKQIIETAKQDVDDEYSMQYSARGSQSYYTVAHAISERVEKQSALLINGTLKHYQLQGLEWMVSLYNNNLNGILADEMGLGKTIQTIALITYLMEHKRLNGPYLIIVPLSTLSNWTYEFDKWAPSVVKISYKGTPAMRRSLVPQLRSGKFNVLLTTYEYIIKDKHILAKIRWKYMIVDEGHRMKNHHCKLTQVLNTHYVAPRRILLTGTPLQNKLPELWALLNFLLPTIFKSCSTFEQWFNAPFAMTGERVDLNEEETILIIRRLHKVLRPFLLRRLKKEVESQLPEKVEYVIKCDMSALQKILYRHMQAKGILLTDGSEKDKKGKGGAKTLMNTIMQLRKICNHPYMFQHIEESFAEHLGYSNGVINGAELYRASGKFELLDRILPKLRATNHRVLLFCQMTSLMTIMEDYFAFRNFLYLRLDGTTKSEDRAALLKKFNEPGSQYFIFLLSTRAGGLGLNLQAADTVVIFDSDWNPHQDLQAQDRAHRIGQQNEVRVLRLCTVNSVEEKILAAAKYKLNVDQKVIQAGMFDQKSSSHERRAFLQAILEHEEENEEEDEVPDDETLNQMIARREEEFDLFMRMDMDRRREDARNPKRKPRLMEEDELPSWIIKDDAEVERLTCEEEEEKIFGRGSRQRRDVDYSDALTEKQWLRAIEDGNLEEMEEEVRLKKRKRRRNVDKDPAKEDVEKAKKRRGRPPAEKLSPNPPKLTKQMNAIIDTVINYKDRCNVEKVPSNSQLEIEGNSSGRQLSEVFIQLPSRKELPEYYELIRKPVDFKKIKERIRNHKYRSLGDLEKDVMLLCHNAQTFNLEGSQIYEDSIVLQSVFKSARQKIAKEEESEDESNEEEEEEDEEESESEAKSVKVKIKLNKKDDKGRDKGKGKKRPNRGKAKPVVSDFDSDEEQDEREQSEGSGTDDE

[3] = molecular target: Sodium-dependent serotonin transporter (Homo sapiens) (UniProt P31645); settings: Compound concentration 10.0 uM
Sodium-dependent serotonin transporter (Homo sapiens), sequence (P31645 whole entry, looked up): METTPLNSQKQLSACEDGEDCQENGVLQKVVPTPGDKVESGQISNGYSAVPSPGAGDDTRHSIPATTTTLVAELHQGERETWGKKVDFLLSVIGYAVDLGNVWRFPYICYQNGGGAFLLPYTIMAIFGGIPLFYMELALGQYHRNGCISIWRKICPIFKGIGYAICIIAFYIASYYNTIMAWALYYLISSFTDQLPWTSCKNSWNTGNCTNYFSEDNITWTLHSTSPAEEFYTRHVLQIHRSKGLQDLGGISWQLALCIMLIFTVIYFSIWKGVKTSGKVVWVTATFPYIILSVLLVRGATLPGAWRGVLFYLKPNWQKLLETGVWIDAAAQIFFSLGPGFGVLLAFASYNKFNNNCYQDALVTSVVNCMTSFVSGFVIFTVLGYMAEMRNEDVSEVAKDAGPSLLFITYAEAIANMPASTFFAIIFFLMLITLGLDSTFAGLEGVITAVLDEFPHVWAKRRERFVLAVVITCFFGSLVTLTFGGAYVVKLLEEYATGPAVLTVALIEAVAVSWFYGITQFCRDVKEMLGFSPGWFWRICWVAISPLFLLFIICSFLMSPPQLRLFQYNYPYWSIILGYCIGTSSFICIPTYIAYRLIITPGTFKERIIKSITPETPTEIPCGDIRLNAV

[4] = molecular target: Calcium/calmodulin-dependent protein kinase type II subunit delta (Homo sapiens) (UniProt Q13557); test: CAMK2D SGC Tm panel (DSF); settings: for ΔTm: Compound concentration 10.0 uM
Calcium/calmodulin-dependent protein kinase type II subunit delta (Homo sapiens), sequence (Q13557 whole entry): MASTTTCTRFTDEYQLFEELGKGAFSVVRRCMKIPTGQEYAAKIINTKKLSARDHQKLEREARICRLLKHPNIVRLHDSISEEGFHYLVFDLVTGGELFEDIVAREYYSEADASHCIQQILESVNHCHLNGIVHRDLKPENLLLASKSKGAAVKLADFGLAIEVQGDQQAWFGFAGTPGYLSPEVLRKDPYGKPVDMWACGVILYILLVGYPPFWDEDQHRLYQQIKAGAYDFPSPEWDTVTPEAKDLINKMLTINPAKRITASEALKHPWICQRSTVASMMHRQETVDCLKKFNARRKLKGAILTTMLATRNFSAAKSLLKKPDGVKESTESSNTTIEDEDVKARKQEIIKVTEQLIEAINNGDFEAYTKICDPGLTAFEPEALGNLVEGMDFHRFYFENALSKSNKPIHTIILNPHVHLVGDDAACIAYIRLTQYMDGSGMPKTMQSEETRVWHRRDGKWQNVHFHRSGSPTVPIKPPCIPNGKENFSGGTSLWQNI

[5] = molecular target: Serine/threonine-protein kinase 10 (Homo sapiens) (UniProt O94804); test: STK10 SGC Tm panel (DSF); settings: for ΔTm: Compound concentration 10.0 uM
Serine/threonine-protein kinase 10 (Homo sapiens), sequence (O94804 whole entry, looked up): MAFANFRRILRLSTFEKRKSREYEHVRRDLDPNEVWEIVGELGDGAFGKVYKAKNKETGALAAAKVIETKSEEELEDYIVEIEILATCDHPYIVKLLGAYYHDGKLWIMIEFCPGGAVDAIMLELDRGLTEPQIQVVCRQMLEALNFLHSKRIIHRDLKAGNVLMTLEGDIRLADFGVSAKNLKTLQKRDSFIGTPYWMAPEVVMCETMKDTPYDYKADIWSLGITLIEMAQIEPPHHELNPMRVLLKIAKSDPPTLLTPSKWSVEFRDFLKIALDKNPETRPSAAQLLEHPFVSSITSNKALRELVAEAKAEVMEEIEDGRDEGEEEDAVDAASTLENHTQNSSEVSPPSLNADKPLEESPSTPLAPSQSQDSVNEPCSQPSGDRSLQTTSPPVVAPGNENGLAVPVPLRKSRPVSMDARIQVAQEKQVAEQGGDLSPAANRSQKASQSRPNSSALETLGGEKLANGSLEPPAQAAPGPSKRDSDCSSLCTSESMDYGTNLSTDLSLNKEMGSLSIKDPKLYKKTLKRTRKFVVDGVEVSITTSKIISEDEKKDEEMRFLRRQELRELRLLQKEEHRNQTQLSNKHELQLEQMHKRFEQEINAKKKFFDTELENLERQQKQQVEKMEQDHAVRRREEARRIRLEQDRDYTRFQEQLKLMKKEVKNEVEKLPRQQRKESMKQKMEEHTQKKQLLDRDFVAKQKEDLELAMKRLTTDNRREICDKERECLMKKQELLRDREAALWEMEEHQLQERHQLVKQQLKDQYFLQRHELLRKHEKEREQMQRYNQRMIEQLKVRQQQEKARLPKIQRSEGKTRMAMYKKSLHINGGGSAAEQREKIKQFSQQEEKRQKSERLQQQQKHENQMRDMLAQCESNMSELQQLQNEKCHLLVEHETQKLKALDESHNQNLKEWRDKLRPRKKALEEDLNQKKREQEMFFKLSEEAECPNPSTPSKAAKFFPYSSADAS

[6] = molecular target: Sodium-dependent dopamine transporter (Homo sapiens, UniProt Q01959); test: GPCRScan assay: inhibition of DAT; design: radioligand conc. used [nm] 3.6 – 16.0, parental cells stable HEK
Sodium-dependent dopamine transporter, sequence (Q01959 whole entry): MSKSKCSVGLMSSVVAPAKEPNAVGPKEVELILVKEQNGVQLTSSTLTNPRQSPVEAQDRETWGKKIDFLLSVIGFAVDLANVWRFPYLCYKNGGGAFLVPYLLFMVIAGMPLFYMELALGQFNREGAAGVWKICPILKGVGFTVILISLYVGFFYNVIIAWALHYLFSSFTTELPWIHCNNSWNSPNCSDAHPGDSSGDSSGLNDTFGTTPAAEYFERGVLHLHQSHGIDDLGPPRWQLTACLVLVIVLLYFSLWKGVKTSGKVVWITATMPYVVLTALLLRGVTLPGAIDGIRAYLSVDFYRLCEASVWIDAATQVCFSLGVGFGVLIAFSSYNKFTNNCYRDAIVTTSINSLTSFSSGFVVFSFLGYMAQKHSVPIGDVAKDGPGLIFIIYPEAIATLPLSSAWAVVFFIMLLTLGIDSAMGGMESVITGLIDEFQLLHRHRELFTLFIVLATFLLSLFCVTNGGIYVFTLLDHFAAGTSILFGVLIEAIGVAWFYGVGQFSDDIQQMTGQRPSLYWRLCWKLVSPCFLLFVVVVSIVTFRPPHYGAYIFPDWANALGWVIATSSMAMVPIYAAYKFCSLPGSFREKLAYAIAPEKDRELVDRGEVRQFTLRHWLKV

[7] = molecular target: T2, Cytoplasmic tyrosine-protein kinase BMX (Homo sapiens) (UniProt P51813); test: BMX SGC Tm panel (DSF); settings: for ΔTm: Compound concentration 10.0 uM
T2 sequence (whole entry): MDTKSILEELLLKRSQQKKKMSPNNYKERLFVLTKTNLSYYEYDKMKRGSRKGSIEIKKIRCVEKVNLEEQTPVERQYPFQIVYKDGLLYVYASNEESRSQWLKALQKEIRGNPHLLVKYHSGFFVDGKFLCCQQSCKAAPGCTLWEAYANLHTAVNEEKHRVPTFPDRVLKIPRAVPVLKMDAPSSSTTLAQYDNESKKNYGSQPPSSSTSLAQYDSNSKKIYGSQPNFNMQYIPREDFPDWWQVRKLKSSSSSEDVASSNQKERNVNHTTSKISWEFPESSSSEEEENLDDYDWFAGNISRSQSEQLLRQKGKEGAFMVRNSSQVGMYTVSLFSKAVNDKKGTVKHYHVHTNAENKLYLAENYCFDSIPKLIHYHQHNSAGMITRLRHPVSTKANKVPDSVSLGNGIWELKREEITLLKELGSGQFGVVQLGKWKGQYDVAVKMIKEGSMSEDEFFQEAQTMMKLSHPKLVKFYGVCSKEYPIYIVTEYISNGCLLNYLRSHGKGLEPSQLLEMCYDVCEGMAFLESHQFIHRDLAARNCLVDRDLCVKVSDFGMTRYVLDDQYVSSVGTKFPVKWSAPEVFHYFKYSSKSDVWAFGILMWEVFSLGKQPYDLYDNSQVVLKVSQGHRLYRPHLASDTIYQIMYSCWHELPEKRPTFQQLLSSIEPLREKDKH

[8] = molecular target: D(4) dopamine receptor (Homo sapiens) (UniProt P21917); settings: Compound concentration 10.0 uM
D(4) dopamine receptor (Homo sapiens), sequence (P21917 whole entry): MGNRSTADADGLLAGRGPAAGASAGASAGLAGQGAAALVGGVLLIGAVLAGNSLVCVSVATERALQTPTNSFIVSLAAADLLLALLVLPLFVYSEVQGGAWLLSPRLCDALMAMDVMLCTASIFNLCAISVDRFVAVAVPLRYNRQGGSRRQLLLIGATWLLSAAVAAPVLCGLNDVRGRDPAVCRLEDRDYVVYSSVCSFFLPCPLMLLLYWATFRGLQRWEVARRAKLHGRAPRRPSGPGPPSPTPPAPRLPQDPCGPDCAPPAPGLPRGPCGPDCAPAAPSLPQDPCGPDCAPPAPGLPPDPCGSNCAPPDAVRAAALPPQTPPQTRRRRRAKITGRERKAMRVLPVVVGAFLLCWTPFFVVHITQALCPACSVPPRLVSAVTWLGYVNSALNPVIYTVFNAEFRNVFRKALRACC

[9] = molecular target: T3, Calcium/calmodulin-dependent protein kinase type IV (Homo sapiens) (UniProt Q16566); test: CAMK4 SGC Tm panel (DSF); settings: for ΔTm: Compound concentration 10.0 uM
T3 sequence (whole entry): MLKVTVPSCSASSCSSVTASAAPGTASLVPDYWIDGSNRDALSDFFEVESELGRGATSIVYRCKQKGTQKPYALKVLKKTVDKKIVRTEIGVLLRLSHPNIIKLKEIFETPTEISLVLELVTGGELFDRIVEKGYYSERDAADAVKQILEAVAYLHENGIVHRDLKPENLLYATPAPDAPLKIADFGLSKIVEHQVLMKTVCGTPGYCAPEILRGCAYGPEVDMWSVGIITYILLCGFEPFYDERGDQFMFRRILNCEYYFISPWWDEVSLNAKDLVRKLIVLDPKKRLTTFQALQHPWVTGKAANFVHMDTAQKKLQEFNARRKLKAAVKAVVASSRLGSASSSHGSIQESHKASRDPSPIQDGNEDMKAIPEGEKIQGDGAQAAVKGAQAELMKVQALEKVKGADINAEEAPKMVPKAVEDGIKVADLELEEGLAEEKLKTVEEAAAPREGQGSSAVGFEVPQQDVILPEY

Row | delta Tm Staurosporine positive control [1] | ΔTm [1] | IC50 [2] | inhibition [3] | delta Tm Staurosporine positive control [4] | ΔTm [4] | delta Tm Staurosporine positive control [5] | ΔTm [5] | Ki [6] | pKi [6] | delta Tm Staurosporine positive control [7] | ΔTm [7] | inhibition [8] | delta Tm Staurosporine positive control [9] | ΔTm [9] | Compound
1 | 22.2 | 0.157 | 0.0298 µM (active) | 27.5% | 16 | 0.157 | 22.7 | 0.244 | > 10 µM | < 5 | 7.18 | 0.191 | 1.52% | 8.78 | 0.803 | COC[C@H](NC(=O)c1ccn(S(C)(=O)=O)c1)C(=O)Nc1nc(-c2cccc(-c3ccn(C)n3)c2)cs1
2 | 22.2 | 0.17 | 4.35 µM (not active) | 17.3% | 16 | 0.121 | 22.7 | 0.554 | > 10 µM | < 5 | 7.18 | 0.254 | 6.59% | 8.78 | 0.413 | C[C@H](NC(=O)c1cn(C2(C#N)CC2)cn1)C(=O)Nc1nc(-c2cccc(-c3ccn(C)n3)c2)cs1
